Here are results for one compound from patent US7759101B2, “Ginsenoside glycosidases hydrolyzing ginsenoside sugar moieties and uses thereof” (priority 2000, dated 2010).

Each structure is given as a SMILES string.

The subject of assay [1] is ginsenoside glycosidases from Streptomyces. The assay is described as follows: Hydrolysis of Rd with ginsenoside glycosidases from Streptomyces. The assay is classed as biochemical, Streptomyces sp. FFCCDL-2 g. The conditions noted are these: 1% Rd in acetate buffer containing 20% ethanol, 50° C., 20 hours. The procedure:
Streptomyces sp. FFCCDL-2 g (available from Food Fermentation Culture Collection of Dalian Institute of Light Industry) was cultured at 30° C. for 48 hours in a medium containing 1% by weight of ginseng extracts and 3% by weight of wheat bran extracts. Cells were removed by centrifugation, after which (NH4)2SO4 powder was added to 300 ml of the cell-free supernatant to 70% saturation to precipitate the enzymes. The solution was stored at 4° C. overnight and centrifuged to collect the pellets. The pellets were resuspended and the suspension was dialyzed against 0.01M acetate buffer pH 5. Impurities were removed by centrifugation, and 15 ml of crude enzyme solution was obtained.
10 ml of the enzyme solution was allowed to react with 10 ml of 1% Rd in acetate buffer containing 20% ethanol at 50° C. for 20 hours.

In assay [2] the test system is ginsenoside glycosidase III. The assay is described as follows: Hydrolysis of ginsenoside Rd with ginsenoside glycosidase III (Fraction 18). The conditions noted are these: substrate 0.5%, pH 5.0, 30° C., 18 hours. The assay is classed as biochemical, Aspergillus niger. The procedure: Ginsenoside glycosidase II was purified from the crude enzyme solution obtained in 1.1 by HPLC. Separation column: Bio-Scale Q (BioRad), 2 ml/tube. 1 ml of the crude enzyme solution was loaded on the column, and eluted with solvent A (25 mM Tris-HCl buffer pH 7.4) and solvent B (0.5M NaCl in 20 mM Tris-HCl buffer pH 7.4). Fraction 18 appeared as a single dot when running on a SDS-polyacrylamide gel and thus represented a purified enzyme. The enzyme was designated as ginsenoside glycosidase III. This enzyme can hydrolyze the diglucosyl groups at C-3 of aglycone, converting Rd and Rg3 to C-K and aglycone.
To observe the differences between the ginsenoside glycosidases of the invention and known exo-cellulases, the ginsenoside glycosidases of the invention were compared with cellulose β-glucosidase (E.C. 3.2.1.21) in two reactions with 0.5% ginsenosides Rb1 or Rd as substrate.

`CC(C)=CCC[C@](C)(O[C@@H]1O[C@H](CO)[C@@H](O)[C@H](O)[C@H]1O)[C@H]1CC[C@]2(C)[C@@H]1[C@H](O)C[C@@H]1[C@@]3(C)CC[C@H](O[C@@H]4O[C@H](CO)[C@@H](O)[C@H](O)[C@H]4O[C@@H]4O[C@H](CO)[C@@H](O)[C@H](O)[C@H]4O)C(C)(C)[C@@H]3CC[C@]12C` [Rd, ginsenoside Rd]: the “Rd converted to ginsenoside F2” value in assay [1] is reported as 50%. Besides, in assay [2], the “Percentage of C—K in the reaction product” value was determined as 36%, the “Percentage of Rd in the reaction product” value was found to be 61% and the “Percentage of aglycone in the reaction product” value is recorded as 3%.
